Assay results as given in patent US20210327553A1, “PREDICTION OF ADVERSE DRUG REACTION BASED ON MACHINE-LEARNED MODELS USING PROTEIN FUNCTION SCORES AND CLINICAL FACTORS” (Cipherome, Inc., priority 2020, published 2021).

Assays:
[1] = tested on: COVID-19; conditions: limited in-vitro and anecdotal data; cited from earlier work
[2] = prolonged use in patients with liver or kidney problems or immunosuppressed; cited from earlier work
[3] = Retrospective UK Biobank analysis of warfarin ADR records within first 90 days of administration; format: in vivo; conditions: n=612, ADR record (ICD9/10) within first 90 days of warfarin administration
Method: A retrospective analysis was conducted using genomic and phenotypic data from the UK Biobank (FIG. 2). […] Most common warfarin ADRs listed in the health registry data included non-traumatic, hemorrhage, gastrointestinal bleeding, and “ADRs due to anticoagulant use”.

Structure (SMILES) | in-vitro activity against COVID-19 [1] | cardiotoxicity [2] | ADR prevalence [3]
CCN(CC)CCCC(C)Nc1ccnc2cc(Cl)ccc12 (centres unmarked) [chloroquine] | have in-vitro activity against COVID-19 | cadiotoxicity (prolonged QT syndrome of irregular heartbeats) | 
CCN(CCO)CCCC(C)Nc1ccnc2cc(Cl)ccc12 (centres unmarked) [hydroxychloroquine] | have in-vitro activity against COVID-19 | cadiotoxicity (prolonged QT syndrome of irregular heartbeats) | 
CC(=O)CC(c1ccccc1)c1c(O)c2ccccc2oc1=O (centres unmarked) [warfarin] |  |  | 4.41%
